# Assay results: patent publication US20140004192A1, “PHARMACEUTICAL FORMULATIONS OF INDIBULIN AND USES THEREOF” (Ziopharm Oncology, Inc., priority 2012, published 2014)
# Where two headings read alike, the source gives them in different places.
# Key:
# [1] = Microcentrifuge dissolution test in model fasted duodenal solution (MFDS); assay type: physicochemical; settings: dosed at 200 μgA/mL
# Protocol: The microcentrifuge dissolution test was performed to assess the ability of the indibulin SDD to sustain solubilized drug levels and to determine suspension stability. Using this method, 10% A HPMCAS-H(HPMCAS high grade), 15% A HPMCAS-H, 20% A HPMCAS-H, 25% A HPMCAS-H, 25% A HPMCAS-M (HPMCAS medium grade) and 50% A HPMCAS-M SDD formulations were tested. Specifically, the microcentrifuge dissolution test measures the supersaturation of drug above the crystalline solubility when dosed into the model fasted duodenal solution (MFDS).
# In the microcentrifuge dissolution test, indibulin HPMCAS SDDs were each dosed into MFDS, which is 0.5% taurocholic acid, sodium salt hydrate (NaTC)/1-palmitoyl-2-oleoyl-sn-glycero-3-phosphocholine (POPC) in phosphate buffer solution (PBS, pH 6.5). In each resulted sample, the concentration of dissolved indibulin would have been 200 μg active drug per mL (200 μgA/mL), if all of the indibulin had dissolved. The samples were centrifuged at 13,000 rpm at 37° C. for 1 minute. The supernatant solution of each sample was then analyzed by HPLC. The remaining sample was mixed and allowed to stand undisturbed until next measurement was taken. […]
# [2] = Suspension stability by microcentrifuge dissolution test; assay type: physicochemical; settings: dosed into MFDS
# Protocol: Suspension stability of 10% A HPMCAS-H and 25% A HPMCAS-H formulations were evaluated using the microcentrifuge dissolution test, as detailed below.
# First, a 0.5 wt % Methocel A (Methylcellulose, Methocel A4M Premium, DOW Chemical Company) vehicle was prepared and later used as the suspension vehicle. Specifically, this vehicle was prepared by adding 0.5 g of Methocel A to 30 mL deionized water at 90° C. and stirring until well dispersed. To the resultant dispersion was added 70 mL of water and the mixture was placed into an ice bath and stirred until Methocel A is dissolved.
# A 20 mgA/mL indibulin SDD suspension of each of the 10% A HPMCAS-H and 25% A HPMCAS-H formulations was then prepared by adding the indibulin HPMCAS SDD to the aqueous 0.5 wt % Methocel A vehicle (as prepared above). Each suspension was then tested in the microcentrifuge dissolution test (as described above) immediately after constitution in the aqueous 0.5 wt % Methocel A vehicle (O-hour or Initial), and one hour after the constitution in the aqueous 0.5 wt % Methocel A vehicle. The stability of each suspension was determined by comparing the dissolution profile of the one-hour suspension to the performance of the initial suspension. […]
# [3] = Rat pharmacokinetic study, first study; assay type: in vivo, rats (Sprague Dawley, male); settings: plasma; for bioavailability: ratio of dose-normalized AUC0-10 oral/IV
# Protocol: In the first study, the crystalline indibulin, 10% A and 25% A SDDs were administered p.o. at 10 and 15 mg/kg to rats (Sprague Dawley, male) and plasma concentrations of indibulin were determined at several time points.
# In particular, all rats used in this study were fasted 12 hours prior to dose, and food was returned 4 hours post dose. 10% A and 25% A indibulin HPMCAS SDD formulations (as prepared in Example 1(a)) were used in this study. Indibulin in crystalline form was suspended in 0.5% Methocel A at 10 mg/kg, and 15 mg/kg by vortexing and sonicating. The indibulin SDD formulations were made by combining 10% active indibulin SDD at 10 mg/kg and 15 mg/kg, 25% active indibulin SDD at 10 mg/kg and 15 mg/kg using a mortar with 0.5% Methocel A and using a pestle to gradually mix in to solution. There were six rats per group, all animals were weighed and dose volume calculated so that each rat received test article orally at a volume of 10 mL/kg. The first three rats in each group were bled at 0.5, 2, and 6 hours post dose; the remaining three rats in each group were bled at 1, 4, and 10 hours post dose. For blood collection at all time points all animals were anesthetized with an inhalation of 4% isoflurane and 1.5% oxygen, once it was determined that the animal was adequately anesthetized (no reaction to physical stimulation) using a capillary tube the orbital venous plexus was punctured and a volume of 1 mL of blood was collected in to a sodium heparin tube. Once the blood was collected the sodium heparin tube was inverted ten times, and placed on ice until centrifuged for 10 minutes at 2510 rpm. The plasma was decanted in to labeled Eppendorfs and stored at −80° C. until analyzed by HPLC with MS/MS Detection. All data were acquired using Applied Biosystems/MDS-Sciex Analyst Version 1.5, processed; reported using Watson Version 7.3.0.01TM, Thermo Fisher Scientific, Inc.; and are summarized in FIGS. 12 and 14 and Tables 16, 17, and 18. Table 17 is summary of maximum plasma concentrations of indibulin (Cmax), time for maximum plasma concentration to occur (tmax), and plasma area under the curve values (AUC0-t). […] Table 18 also includes comparative data for a solutol/propylene glycol indibulin formulation, administered by IV and orally.
# [4] = male, Sprague Dawley, po, First Study, rat p.o. 15 mg/kg (90 mg/m^2)
structure (smiles),measurement,setting,value
"O=C(Nc1ccncc1)C(=O)c1cn(Cc2ccc(Cl)cc2)c2ccccc12 [Bulk Crystalline Drug, indibulin]",AUC90,"[1]; MFDS pH 6.5, first 90 min",160 µg·min/mL
same,C90,[1]; concentration in MFDS at 90 min,1 µg/mL
same,C1200,[1]; concentration in MFDS at 1200 min,3 µg/mL
same,Cmax90,"[1]; maximum concentration of indibulin in MFDS pH 6.5, first 90 min",2000 ng/mL
same,Cmax90,"[2]; 20 mgA/mL suspension in 0.5 wt % Methocel A, hold time 0 hr",2000 ng/mL
same,AUC90,[2]; suspension hold time 0 hr,150 µg·min/mL
same,Tmax,"[3]; Sprague Dawley, rat, Male S-D Rats, Oral (Gavage) 10 mg/kg",2 h
same,bioavailability,"[3]; Sprague Dawley, rat, Male S-D Rats, Oral (Gavage) 15 mg/kg, read-out: F (%)",1.5%
same,half-life,"[3]; Sprague Dawley, rat, Male S-D Rats, Oral (Gavage) 15 mg/kg, read-out: Terminal t1/2 (converted)",5.9 h
same,bioavailability,"[3]; Sprague-Dawley, rat, Male S-D Rats, Oral (Gavage) 10 mg/kg, read-out: F (%), absolute oral bioavailability",2.4%
same,Cmax,[3]; [4],6 ng/mL
same,Tmax,[3]; [4],1 h
same,Cmax,"[3]; male, Sprague Dawley, rat, po, 10 mg/kg, Male S-D Rats, Oral (Gavage) 10 mg/kg",18 ng/mL
same,AUC(0-t),"[3]; male, Sprague Dawley, rat, po, 10 mg/kg, Male S-D Rats, Oral (Gavage) 10 mg/kg, read-out: AUC0-10",63.6 ng·h/mL
same,AUC(0-t),"[3]; male, Sprague Dawley, rat, po, 15 mg/kg, First Study, rat p.o. 15 mg/kg (90 mg/m^2), read-out: AUC0-t",31 ng·h/mL
same,Cmax,"[3]; male, Sprague Dawley, rat, po, 15 mg/kg, Male S-D Rats, Oral (Gavage) 15 mg/kg",16.5 ng/mL
same,AUC(0-t),"[3]; male, Sprague Dawley, rat, po, 15 mg/kg, Male S-D Rats, Oral (Gavage) 15 mg/kg, read-out: AUC0-10",56.6 ng·h/mL
same,Tmax,"[3]; male, Sprague-Dawley, po, First Study, rat p.o. 10 mg/kg (60 mg/m^2)",2 h
same,Cmax,"[3]; male, Sprague-Dawley, rat, po, 10 mg/kg, First Study, rat p.o. 10 mg/kg (60 mg/m^2)",18 ng/mL
same,AUC(0-t),"[3]; male, Sprague-Dawley, rat, po, 10 mg/kg, First Study, rat p.o. 10 mg/kg (60 mg/m^2), read-out: AUC0-t",61 ng·h/mL
same,Cmax,"[3]; male, Sprague-Dawley, rat, po, 15 mg/kg, Male S-D Rats, Oral (Gavage) 15 mg/kg",13 ng/mL
